{
  "source": "ChEMBL document CHEMBL1155381",
  "about": "“Optimization of 5-vinylaryl-3-pyridinecarbonitriles as PKCtheta inhibitors” (Bioorg Med Chem Lett, 2010)",
  "key": {"[1]": {"experiment": "Cmax in NZBWF1/J mouse at 25 mg/kg, po", "assay_type": "ADME, organism-based", "design": "dose 25 mg/kg, route oral", "conditions": "in vivo"}, "[2]": {"experiment": "Permeability by PAMPA", "assay_type": "ADME", "conditions": "read-out: permeability"}, "[3]": {"experiment": "AUC in NZBWF1/J mouse at 25 mg/kg, po", "assay_type": "ADME, organism-based", "design": "dose 25 mg/kg, route oral", "conditions": "plasma"}, "[4]": {"experiment": "Aqueous solubility of compound", "assay_type": "physicochemical", "conditions": "buffer"}, "[5]": {"tested_on": "Mus musculus", "experiment": "Cavg in NZBWF1/J mouse at 25 mg/kg, po", "assay_type": "ADME, organism-based", "design": "dose 25 mg/kg, route oral", "conditions": "in vivo"}},
  "data": [
    {"smiles": "Cc1c(Nc2c(C#N)cncc2/C=C/c2cccc(CN3CCN(C)CC3)n2)ccc2[nH]ccc12", "values": [
      {"measurement": "Cmax", "setting": "[1]", "value": 2200, "unit": "nM"},
      {"measurement": "Papp", "setting": "[2]", "value": 0.39, "unit": "×10⁻⁶ cm/s"},
      {"measurement": "AUC", "setting": "[3]", "value": 17.8, "unit": "µM·h"},
      {"measurement": "solubility", "setting": "[4]", "value": 61, "unit": "µg/mL"},
      {"measurement": "Drug uptake", "setting": "[5]", "value": 740, "unit": "nM"}
    ]}
  ]
}
